In PubChem BioAssay AID248 (DTP/NCI, 2004):
“And” between values parts separate entries of the source, which are not always exact repeats. Equal values may be shown once. Inconclusive results and toxic doses are left out.

System: L1210 leukemia ip in BDF1 mice, survival T/C
Assay: NCI In Vivo Anticancer Drug Screen. Data for tumor model L1210 Leukemia (intraperitoneal) in B6D2F1 (BDF1) mice
Settings: endpoint: mean survival time, higher = longer survival
How it was run: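 Antitumor effect is assessed in tumor-bearing animals. Survival in the compound arm is compared with a vehicle-dosed control arm and expressed as their quotient.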

[1] = dose: 25.0 mg/kg/injection, schedule: Q01DX009 (ip), vehicle: Klucel (hydroxypropylcellulose) (HPC)
[2] = dose: 100.0 mg/kg/injection, schedule: Q04DX003 (ip), vehicle: Klucel (hydroxypropylcellulose) (HPC)
[3] = dose: 200.0 mg/kg/injection, schedule: Q04DX003 (ip), vehicle: Klucel (hydroxypropylcellulose) (HPC)
[4] = dose: 100.0 mg/kg/injection, schedule: Q01DX001 (ip), vehicle: carboxymethylcellulose (CMC)
[5] = dose: 200.0 mg/kg/injection, schedule: Q01DX001 (ip), vehicle: carboxymethylcellulose (CMC)
[6] = dose: 400.0 mg/kg/injection, schedule: Q01DX001 (ip), vehicle: carboxymethylcellulose (CMC)
[7] = dose: 100.0 mg/kg/injection, schedule: Q01DX009 (ip), vehicle: Klucel (hydroxypropylcellulose) (HPC)
[8] = dose: 200.0 mg/kg/injection, schedule: Q01DX009 (ip), vehicle: Klucel (hydroxypropylcellulose) (HPC)
[9] = dose: 400.0 mg/kg/injection, schedule: Q04DX003 (ip), vehicle: Klucel (hydroxypropylcellulose) (HPC)
[10] = dose: 100.0 mg/kg/injection, schedule: Q01DX009 (ip), vehicle: saline with Tween-80
[11] = dose: 200.0 mg/kg/injection, schedule: Q01DX009 (ip), vehicle: saline with Tween-80
[12] = dose: 400.0 mg/kg/injection, schedule: Q01DX009 (ip), vehicle: saline with Tween-80
[13] = dose: 100.0 mg/kg/injection, schedule: Q01DX001 (ip), vehicle: other
[14] = dose: 200.0 mg/kg/injection, schedule: Q01DX001 (ip), vehicle: other
[15] = dose: 400.0 mg/kg/injection, schedule: Q01DX001 (ip), vehicle: other
[16] = dose: 50.0 mg/kg/injection, schedule: Q01DX009 (ip), vehicle: Klucel (hydroxypropylcellulose) (HPC)
[17] = dose: 100.0 mg/kg/injection, schedule: Q01DX001 (ip), vehicle: saline
[18] = dose: 200.0 mg/kg/injection, schedule: Q01DX001 (ip), vehicle: saline
[19] = dose: 400.0 mg/kg/injection, schedule: Q01DX001 (ip), vehicle: saline
[20] = dose: 100.0 mg/kg/injection, schedule: Q04DX003 (ip), vehicle: saline
[21] = dose: 400.0 mg/kg/injection, schedule: Q04DX003 (ip), vehicle: saline

COc1cccc(C2CCN(C)C2)c1 (configuration not stated)
T/C (dose: 6.25 mg/kg/injection, schedule: Q01DX009 (ip), vehicle: Klucel (hydroxypropylcellulose) (HPC)): 110 % of control
T/C (dose: 12.5 mg/kg/injection, schedule: Q01DX009 (ip), vehicle: Klucel (hydroxypropylcellulose) (HPC)): 108 % of control
T/C [1]: 103 % of control
T/C [2]: 105 % of control
T/C [3]: 103 % of control

CCCCCCCCCCCCCCCCS(=O)(=O)N/N=C/c1cc(Cl)ccc1O
T/C [4]: 94 % of control
T/C [5]: 92 % of control
T/C [6]: 92 % of control

CCOC(=O)N1Cc2cc3ccccc3nc2C1CC(=O)O (configuration not stated)
T/C [7]: 104 % of control
T/C [2]: 105 % of control
T/C [8]: 98 % of control
T/C [3]: 88 % of control
T/C (dose: 400.0 mg/kg/injection, schedule: Q01DX009 (ip), vehicle: Klucel (hydroxypropylcellulose) (HPC)): 102 % of control
T/C [9]: 96 % of control

C1CCCC2(CCC1)OCCO2
T/C [10]: 93 % of control
T/C (dose: 100.0 mg/kg/injection, schedule: Q04DX003 (ip), vehicle: saline with Tween-80): 113 % of control
T/C [11]: 102 % of control
T/C (dose: 200.0 mg/kg/injection, schedule: Q04DX003 (ip), vehicle: saline with Tween-80): 108 % of control
T/C [12]: 101 % of control
T/C (dose: 400.0 mg/kg/injection, schedule: Q04DX003 (ip), vehicle: saline with Tween-80): 94 % of control

O=C(O)CCC(=O)c1ccc2c(c1)CCCC2
T/C (dose: 3.13 mg/kg/injection, schedule: Q01DX009 (ip), vehicle: saline with Tween-80): 95 % of control
T/C (dose: 6.25 mg/kg/injection, schedule: Q01DX009 (ip), vehicle: saline with Tween-80): 92 % of control
T/C (dose: 12.5 mg/kg/injection, schedule: Q01DX009 (ip), vehicle: saline with Tween-80): 93 % of control

c1cc2c(c(C3=NCCO3)c1)CCCC2 (tested in a mixture with another compound)
T/C [10]: 96 % of control
T/C [11]: 88 % of control
T/C [12]: 91 % of control

O=CNNC(=O)c1cccc([N+](=O)[O-])c1
T/C [13]: 95 % of control
T/C (dose: 100.0 mg/kg/injection, schedule: Q04DX003 (ip), vehicle: other): 97 % of control
T/C [14]: 101 % of control
T/C (dose: 200.0 mg/kg/injection, schedule: Q04DX003 (ip), vehicle: other): 95 % of control
T/C [15]: 92 % of control

COc1ccc(COC2C(O)C(CO)OC2n2cnc3c(N)ncnc32)cc1 (configuration not stated)
T/C (dose: 100.0 mg/kg/injection, schedule: Q01DX005 (ip), vehicle: saline): 92 % of control
T/C (dose: 200.0 mg/kg/injection, schedule: Q01DX005 (ip), vehicle: saline): 94 % of control

NCc1cccn1OCc1ccccc1
T/C [1]: 108 % of control
T/C [16]: 108 % of control
T/C [7]: 152 % of control

NNc1nc(Cl)nc(C(Cl)(Cl)Cl)c1Cl (tested in a mixture with another compound)
T/C [16]: 87 % of control
T/C [7]: 87 % of control
T/C [8]: 89 % of control

CCOc1ccccc1/C=N\NC(=O)c1cccc2ccccc12
T/C [17]: 95 % of control
T/C [18]: 95 % of control
T/C [19]: 90 % of control

COc1ccc(Sc2ccccc2N)c([N+](=O)[O-])c1
T/C [2]: 100 % of control
T/C [3]: 97 % of control
T/C [9]: 92 % of control

Cc1cc2c3ccccc3[nH]c(=O)n2n1
T/C [10]: 96 % of control
T/C [20]: 100 % of control
T/C [11]: 95 % of control
T/C (dose: 200.0 mg/kg/injection, schedule: Q04DX003 (ip), vehicle: saline): 96 % of control
T/C [12]: 86 % of control
T/C [21]: 87 % of control

O=C(N/N=C/c1cccc([N+](=O)[O-])c1)c1cccc2ccccc12
T/C [18]: 92 % of control
T/C [19]: 95 % of control

c1ccc2c(c1)nc1n2CCC1
T/C [4]: 96 % of control
T/C [5]: 98 % of control
T/C [6]: 102 % of control

CC(=O)OC1CC2(Cl)C(Cl)=C(Cl)C1(Cl)C2(Cl)Cl (configuration not stated)
T/C [17]: 100 % of control
T/C [20]: 89 % of control
T/C [18]: 98 % of control
T/C [19]: 98 % of control
T/C [21]: 103 % of control

CCCCCCCCOC(=O)c1[nH]cnc1/N=N/N(C)CCCC
T/C [13]: 107 % of control
T/C [14]: 107 % of control
T/C [15]: 102 % of control

CCOC(=O)c1ccc(NC(=S)Nc2ncccc2C)cc1
T/C (dose: 100.0 mg/kg/injection, schedule: Q04DX002 (ip), vehicle: saline with Tween-80): 103 % of control
T/C (dose: 200.0 mg/kg/injection, schedule: Q04DX002 (ip), vehicle: saline with Tween-80): 103 % of control
T/C (dose: 400.0 mg/kg/injection, schedule: Q04DX002 (ip), vehicle: saline with Tween-80): 95 % of control

CC(=O)C(C#N)c1c(C)cc(C)cc1C (configuration not stated)
T/C (dose: 37.5 mg/kg/injection, schedule: Q04DX003 (ip), vehicle: saline): 97 % of control
T/C (dose: 75.0 mg/kg/injection, schedule: Q01DX001 (ip), vehicle: saline): 97 % of control
T/C (dose: 75.0 mg/kg/injection, schedule: Q04DX003 (ip), vehicle: saline): 92 % of control
T/C (dose: 150.0 mg/kg/injection, schedule: Q01DX001 (ip), vehicle: saline): 105 % of control
T/C (dose: 150.0 mg/kg/injection, schedule: Q04DX003 (ip), vehicle: saline): 96 % of control

O=P1(c2ccccc2)OCCO1
T/C (dose: 25.0 mg/kg/injection, schedule: Q01DX009 (ip), vehicle: carboxymethylcellulose (CMC)): 97 % of control and 98 % of control
T/C (dose: 50.0 mg/kg/injection, schedule: Q01DX009 (ip), vehicle: carboxymethylcellulose (CMC)): 100 % of control and 101 % of control
T/C (dose: 100.0 mg/kg/injection, schedule: Q01DX009 (ip), vehicle: carboxymethylcellulose (CMC)): 94 % of control and 100 % of control and 101 % of control
T/C (dose: 100.0 mg/kg/injection, schedule: Q04DX002 (ip), vehicle: carboxymethylcellulose (CMC)): 93 % of control and 102 % of control
T/C (dose: 100.0 mg/kg/injection, schedule: Q04DX003 (ip), vehicle: carboxymethylcellulose (CMC)): 103 % of control
T/C (dose: 200.0 mg/kg/injection, schedule: Q04DX002 (ip), vehicle: carboxymethylcellulose (CMC)): 96 % of control
T/C (dose: 200.0 mg/kg/injection, schedule: Q04DX003 (ip), vehicle: carboxymethylcellulose (CMC)): 107 % of control
T/C (dose: 400.0 mg/kg/injection, schedule: Q04DX002 (ip), vehicle: carboxymethylcellulose (CMC)): 96 % of control
T/C (dose: 400.0 mg/kg/injection, schedule: Q04DX003 (ip), vehicle: carboxymethylcellulose (CMC)): 97 % of control

CCN(CC)CCCNC(C)CCCN(CC)CC (configuration not stated)
T/C (dose: 50.0 mg/kg/injection, schedule: Q01DX009 (ip), vehicle: water): 106 % of control
T/C (dose: 100.0 mg/kg/injection, schedule: Q01DX009 (ip), vehicle: water): 97 % of control and 107 % of control
T/C (dose: 100.0 mg/kg/injection, schedule: Q04DX003 (ip), vehicle: water): 98 % of control
T/C (dose: 200.0 mg/kg/injection, schedule: Q01DX009 (ip), vehicle: water): 101 % of control and 103 % of control
T/C (dose: 200.0 mg/kg/injection, schedule: Q04DX003 (ip), vehicle: water): 98 % of control
T/C (dose: 400.0 mg/kg/injection, schedule: Q01DX009 (ip), vehicle: water): 93 % of control

O=c1[nH]c2ccccc2n1C1CCN(CCCS(=O)(=O)c2ccccc2)CC1
T/C (dose: 200.0 mg/kg/injection, schedule: Q04DX003 (ip), vehicle: gum acacia): 91 % of control
T/C (dose: 400.0 mg/kg/injection, schedule: Q04DX003 (ip), vehicle: gum acacia): 87 % of control

CCNC(=O)N(CC)N=O
T/C (dose: 6.25 mg/kg/injection, schedule: Q01DX001 (ip), vehicle: saline): 97 % of control
T/C (dose: 12.5 mg/kg/injection, schedule: Q01DX001 (ip), vehicle: saline): 102 % of control
T/C (dose: 25.0 mg/kg/injection, schedule: Q01DX001 (ip), vehicle: saline): 100 % of control
T/C (dose: 50.0 mg/kg/injection, schedule: Q01DX001 (ip), vehicle: saline): 97 % of control
T/C [17]: 110 % of control
T/C [18]: 113 % of control
T/C (dose: 300.0 mg/kg/injection, schedule: Q01DX001 (ip), vehicle: saline): 124 % of control
T/C (dose: 500.0 mg/kg/injection, schedule: Q01DX001 (ip), vehicle: saline): 112 % of control
